Entries after “also recorded” stand apart in the source; their conditions may differ.
Tests used:
[1] = tested on: protein C-deficient plasma; test: Thrombin generation assay in protein C-deficient plasma; assay type: biochemical; conditions: TM-containing protein C-deficient plasma, heparan sulfate
Description: Thrombin generation in normal (A) and protein C-deficient (B) plasma. Experiments were performed in the presence of heparan sulfate (2 μg/ml). Solid lines represent thrombin generation in the presence of 100 nM thrombomodulin (TM) and varying concentrations of DrKIn-I (●, 0 nM; ▪, 40 nM; ▴, 80 nM; ◯, 200 nM). Dashed lines represent thrombin generation in the absence of TM and DrKIn-I.
Briefly, 80 μl of either normal plasma, protein C-deficient plasma, FVIII-deficient plasma or FIX deficient plasma containing 2 μM corn trypsin inhibitor, 2 μg/ml heparan sulfate (four disaccharide units long), 30 μM DOPC/DOPS/DOPE (60:20:20) and 100 nM recombinant TM was incubated with 20 μl of 500-fold diluted TF solution (Innovin; Dade Behring) in the absence or presence of the indicated concentrations of DrKIn-I. Following incubation for 3 minutes at 37° C., thrombin generation was initiated by the dispensation of 20 μl of 2.5 mM fluorogenic substrate (Z-Gly-Gly-Arg-AMC.HCl) dissolved in 0.15 M NaCl, 60 mg/ml BSA and 100 mM CaCl2. Measurements were taken at 1 minute intervals on a SpectraMax M2^e Microplate Reader using an excitation wavelength of 360 nm and an emission wavelength of 460 nm. In some assays, experiments were performed in the absence of thrombomodulin. Results were evaluated using the Technothrombin TGA software (Technoclone).

[2] = Heparin binding assay (HiTrap Heparin column, NaCl gradient); conditions: 0.0-1.0 M NaCl gradient, 20 mM Tris-HCl pH 8.0
Description: A: 70 μg of DrKIn-I in 0.1 ml equilibrating buffer (20 mM Tris-HCl, pH 8.0) was applied to a 5 ml HiTrap Heparin column and eluted with a 50 ml gradient from 0.0-1.0 M NaCl. The salt concentration corresponding to the elution peak was determined to be 0.95 M. B, Binding of DrKIn-I (0.78, 1.56, 2.34, 3.13, 4.68 and 6.25 nM) to immobilized APC was assessed in buffer containing 10 mM HEPES, 0.15 M NaCl, 3 mM EDTA and 0.05% P20 at a flow rate of 60 μl/min at 25° C. […] The thin lines represent the global fit to the response data. […] Results shown are means±SD of three experiments. Representative binding traces are shown.

[3] = target: APC (Homo sapiens, UniProt P04070); test: APC-mediated FVa inactivation assay (residual FVa activity, prothrombin time-based); assay type: biochemical; parameters: purchased Haematologic Technologies
Sequence of APC (P04070 212-450 limits assumed): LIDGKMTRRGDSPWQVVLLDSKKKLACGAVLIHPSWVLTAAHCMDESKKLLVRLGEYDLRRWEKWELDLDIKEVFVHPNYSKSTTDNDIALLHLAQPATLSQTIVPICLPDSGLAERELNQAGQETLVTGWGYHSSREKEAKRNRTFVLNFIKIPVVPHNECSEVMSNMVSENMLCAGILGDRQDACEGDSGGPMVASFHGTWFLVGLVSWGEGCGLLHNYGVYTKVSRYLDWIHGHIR
Sequence of APC (P04070 43-197 limits assumed): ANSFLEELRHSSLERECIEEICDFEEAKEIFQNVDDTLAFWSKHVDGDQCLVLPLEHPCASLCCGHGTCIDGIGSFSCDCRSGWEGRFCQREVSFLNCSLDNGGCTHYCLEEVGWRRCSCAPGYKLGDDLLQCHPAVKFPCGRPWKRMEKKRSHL
Description: B: Dose-response curves of APC (10 nM) inhibition by DrKIn-I in the absence (◯) and presence (●) of 0.1 U/ml heparin. C: To determine the minimum concentration of heparin required for the potentiation APC inhibition, the activity of APC (20 nM) was measured after the addition of DrKIn-I (20 nM) and varying concentrations of heparin (0-1000 mU/ml). D: To assess the ability of heparan sulfate and the minimum length of heparan sulfate required to potentiate DrKIn-I-mediated APC inhibition, the amidolytic activity of APC was determined in the presence of DrKIn-I (20 nM) and different lengths of heparan sulfate chains (10 μg/ml each). E, Time course of FVa inactivation by APC (1 nM) was assessed in the absence (●) or presence (▪) of 5 nM DrKIn-I, or in the presence of 5 nM DrKIn-I supplemented with 0.1 U/ml heparin (▴), as described in “Materials and methods”. F, The effect of DrKIn-I (0-250 nM) and/or heparin (0.1 U/ml) on APC-mediated FVa inactivation was determined after 10 minutes of incubation at 37° C. with APC (5 nM). Results shown are means±SD of three experiments.
In assays involving FVa, 20 nM purified FVa was incubated at 37° C. with a mixture containing 1 nM or 5 nM APC, 20 nM protein S, 20 μM DOPC/DOPS (75:25) and 5-250 nM DrKIn-I in the presence or absence of 0.1 U/ml heparin. At specific time intervals, 5 μl aliquots were removed and mixed with 50 μl of FV-deficient plasma. The residual FVa activities were quantified in a standard prothrombin time-based assay using a calibration curved obtained by adding variable amounts of FVa to FV-deficient plasma. All concentrations given were final concentrations.

[4] = tested on: APC in FIX-deficient plasma; test: APTT-based APC resistance assay in FIX-deficient plasma; assay type: biochemical; conditions: 50-200 nM DrKIn-I, 40 nM APC, 2 μg/ml heparan sulfate
Description: APTT-based clotting times were measured in normal, FVIII-deficient and FIX-deficient plasma containing 2 μg/ml heparan sulfate in the presence or absence of 40 nM APC and the indicated concentrations of DrKIn-I. Results shown are means±S.D. of at least three experiments.
50 μl of normal plasma, FVIII-deficient plasma or FIX-deficient plasma supplemented with 2 μg/ml heparan sulfate (four disaccharide units long) was exposed to APC (40 nM) and varying concentrations of DrKIn-I (50-200 nM). 50 μl of activated partial thromboplastin (APTT) reagent (HYPHEN Biomed) was added and incubated for 1 minute at 37° C. Finally, clotting was initiated by adding 50 μl of 20 mM CaCl2. Coagulation times, which reflect the activities of APC, were recorded on a coagulometer (Hemostasis Analyzer KC-1; Sigma Diagnostics).

[5] = tested on: plasmin; test: Euglobulin clot lysis assay; assay type: biochemical

Substance: DrKIn-I (CGGNDNNFETRKKCRQTCGAPRKGRPT)
- thrombin generation profile (APC-independent) [1]: did not alter the thrombin generation profile; also recorded: negligible effects
- NaCl concentration at elution from heparin column [2]: 0.95 M
- FVa protected from inactivation ([3]; 5 nM DrKIn-I with 0.1 U/ml heparin, APC 1 nM, FVa 20 nM): 100%
- FVa protected from inactivation ([3]; 250 nM DrKIn-I (50-fold molar excess) without heparin, APC 5 nM, 10 minutes): less than 20%
- effect on APC-mediated FVa degradation ([3]; without heparin (5 nM DrKIn-I, APC 1 nM, FVa 20 nM)): relatively no effect on APC activity; also recorded: negligible
- clotting time [4]: dose-dependently decreased the clotting time
- prolongation of euglobulin clot lysis time ([5]; 20 nM inhibitor): failed to prolong the clot lysis time
- prolongation of euglobulin clot lysis time ([5]; 100 nM inhibitor): approximately an hour

Source: patent publication US9206246B2, “Heparin/heparan sulfate-dependent inhibitors of activated protein C and uses thereof in treating hemophilic disorders” (Academia Sinica, priority 2012, dated 2015)
